# According to patent EP4620956A1, “PARP1 INHIBITORS” (Zhejiang Yangli Pharmaceutical Technology Co., Ltd., priority 2022, dated 2024):
# What was measured:
# [1] = tested on: MDA-MB-436 xenograft tumour; experiment: Anti-tumour effect in MDA-MB-436 subcutaneous xenograft tumour mouse model; type: in vivo; conditions: same dose, MDA-MB-436 xenograft mice
# Experimental: Example 4 was further verified in vivo. A subcutaneous xenograft tumour mouse model of the BRCA1-mutated MDA-MB-436 cell line was selected. Human breast cancer MDA-MB-436 cells (ATCC, HTB-130) were cultured in vitro in a monolayer, with the culture conditions of L-15 medium supplemented with 10% foetal bovine serum, 1% penicillin-streptomycin solution, and 0.01 mg/mL bovine insulin, and cultured at 37°C in a CO2-free incubator. The cells were routinely digested and passaged twice a week using trypsin-EDTA. When the cell confluency reached 80%-90%, the cells were harvested and counted, and 0.2 mL of 1 × 10^7 MDA-MB-436 cells were subcutaneously inoculated on the right back of each mouse (PBS : Matrigel = 1 : 1). When the mean tumour volume reached 152 mm^3, the mice were grouped for drug administration. The day of drug administration was set as Day 0. The tumour volume and the body weight of the mice were monitored twice a week, and the drug treatment lasted for 28 days.
# The diameter of the tumour was measured with a vernier calliper. The tumour volume is calculated according to the following equation: V = 0.5a × b^2, where a and b represent the long and short diameters of the tumour, respectively. The tumour inhibition effect of the compound was evaluated by relative tumour shrinkage rate Reg%. Reg% reflects the rate of tumour volume reduction after treatment. Reg% = (V0-Vt)/V0×100%, where V0 is the tumour volume measured at the time of grouping for drug administration (i.e., d0), and Vt is the tumour volume measured at a certain time point.
# The criteria for compound response in the mouse model were adapted from mRECIST (Modified Response Evaluation Criteria in Solid Tumours) (Gao et al, 2015), and are specifically defined as follows: [formula] • PR (Partial Response): BestResponse < −50% and BestAvgResponse < −20%; [formula] • SD (Stable Disease): BestResponse < 35% and BestAvgResponse < 30%; [formula] • PD (Progressive Disease): other cases; • ORR% is the sum of the proportions of Complete Response (CR) and Partial Response (PR).
# Statistical analysis was performed using Prism software, including the mean value (Mean) and standard error of the mean (SEM) of the tumour volume at each time point for each group. For the statistical analysis of TV, the original TV data from each measurement were used to compare the differences between groups. Two-way ANOVA was applied to include the two factors, i.e., drug administration and time for analysis, followed by the Tukey's multiple comparisons test, wherein p < 0.05 was considered statistically significant.
# [2] = target: T1, PARP1 (Homo sapiens, UniProt P09874); experiment: DNA trapping capability of PARP1 (HTRF); type: biochemical
# T1 construct: purchased BPS 80501
# T1 sequence (P09874 whole entry): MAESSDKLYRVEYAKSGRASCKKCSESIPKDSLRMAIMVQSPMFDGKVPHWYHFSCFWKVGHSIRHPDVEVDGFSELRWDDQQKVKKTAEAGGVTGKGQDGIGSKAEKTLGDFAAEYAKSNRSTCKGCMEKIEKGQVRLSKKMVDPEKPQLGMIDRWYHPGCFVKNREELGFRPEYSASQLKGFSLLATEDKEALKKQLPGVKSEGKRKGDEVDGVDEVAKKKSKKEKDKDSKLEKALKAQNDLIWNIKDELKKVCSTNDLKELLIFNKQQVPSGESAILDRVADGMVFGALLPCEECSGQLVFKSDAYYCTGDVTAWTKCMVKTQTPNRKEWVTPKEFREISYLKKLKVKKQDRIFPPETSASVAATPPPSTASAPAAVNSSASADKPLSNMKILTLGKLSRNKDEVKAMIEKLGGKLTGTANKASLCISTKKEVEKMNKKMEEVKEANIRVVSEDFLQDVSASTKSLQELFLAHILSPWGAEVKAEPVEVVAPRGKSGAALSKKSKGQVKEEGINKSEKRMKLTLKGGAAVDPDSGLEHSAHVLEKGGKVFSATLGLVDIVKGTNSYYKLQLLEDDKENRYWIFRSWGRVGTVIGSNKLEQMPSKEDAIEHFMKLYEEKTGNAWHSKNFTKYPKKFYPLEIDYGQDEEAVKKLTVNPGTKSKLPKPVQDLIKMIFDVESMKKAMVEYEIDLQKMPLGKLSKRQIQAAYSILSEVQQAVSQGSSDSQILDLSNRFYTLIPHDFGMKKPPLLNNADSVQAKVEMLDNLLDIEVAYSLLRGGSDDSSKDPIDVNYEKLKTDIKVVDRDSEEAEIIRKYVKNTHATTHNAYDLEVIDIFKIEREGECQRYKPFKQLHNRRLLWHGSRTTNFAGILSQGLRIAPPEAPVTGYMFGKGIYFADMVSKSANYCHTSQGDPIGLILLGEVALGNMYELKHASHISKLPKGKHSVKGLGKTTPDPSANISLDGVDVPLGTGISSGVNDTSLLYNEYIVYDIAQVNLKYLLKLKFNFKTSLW
# [3] = tested on: MDA-MB-231; experiment: Anti-proliferative activity (CellTiter-Glo, 7 days), MDA-MB-231; type: cell-based, human
# [4] = target: T2, PARP2 (Homo sapiens, UniProt Q9UGN5); experiment: PARP2-DNA trapping, fluorescence polarization (FP); type: biochemical
# T2 construct: purchased BPS 80502
# T2 sequence (Q9UGN5 whole entry): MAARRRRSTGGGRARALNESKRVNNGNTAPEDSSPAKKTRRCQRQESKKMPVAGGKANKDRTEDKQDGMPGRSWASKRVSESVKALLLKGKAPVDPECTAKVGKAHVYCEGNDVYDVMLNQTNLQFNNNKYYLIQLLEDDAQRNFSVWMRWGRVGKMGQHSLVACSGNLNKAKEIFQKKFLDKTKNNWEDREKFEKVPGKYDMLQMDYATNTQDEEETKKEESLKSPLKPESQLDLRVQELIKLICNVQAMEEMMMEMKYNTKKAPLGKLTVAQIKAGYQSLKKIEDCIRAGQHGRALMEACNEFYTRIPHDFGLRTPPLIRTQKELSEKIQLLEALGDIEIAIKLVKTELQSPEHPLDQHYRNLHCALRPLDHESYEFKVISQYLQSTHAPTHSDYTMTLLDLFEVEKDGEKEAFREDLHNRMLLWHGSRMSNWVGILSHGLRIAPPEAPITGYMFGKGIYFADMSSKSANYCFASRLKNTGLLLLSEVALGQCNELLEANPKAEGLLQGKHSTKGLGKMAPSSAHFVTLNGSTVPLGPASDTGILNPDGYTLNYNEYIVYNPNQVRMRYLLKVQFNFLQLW
# [5] = tested on: A549 PARP1-KO cell lines; experiment: Cellular PARylation inhibition, high-content imaging, PARP1-KO; type: cell-based
# [6] = tested on: cleaved caspase-3; experiment: Cleaved caspase-3 in MDA-MB-436 xenograft tumour tissues (immunoblotting); type: in vivo, mice; conditions: 10 days of treatment, 0.25 hours and 24 hours after the last administration, FIG. 5 and 6
# Experimental: The pro-apoptotic effect of the compounds was further verified in vivo. The changes of cleaved caspase-3 in subcutaneous xenograft tumour tissues of MDA-MB-436 mice were detected by immunoblotting. After 10 days of treatment with different compounds, the animals were euthanized 0.25 hours and 24 hours after the last administration, and the tumour tissues were obtained for analysis. The rapidly frozen tumour tissues were placed on dry ice, 350 µL of complete cell lysis buffer (containing 1% protease inhibitors and phosphatase inhibitors) was added, the tissues were disrupted using Tissue grinder for 5 minutes, and the tissue lysate was placed on ice for 30 minutes. Centrifugation was performed at 12,000 rpm and 4°C for 10 minutes, the supernatant was placed in a new 1.5 mL centrifuge tube, and protein quantification was carried out using a BCA quantification kit. According to the quantitative results, the sample protein concentration was uniformly adjusted to 2 µg/µL, LDS loading buffer (4X) and sample reducing agent (10X) were added, and the samples were heated at a constant temperature of 100°C for 10 minutes. For Western blotting, 10 µL of sample was loaded into each well of an SDS-PAGE gel, and electrophoresis was performed at 80 V for 30 minutes, followed by 120 V for 90 minutes. […] The membrane was then cut according to the molecular weights of the proteins to be detected. […]
smiles,measurement,setting,value
"[2H]C([2H])([2H])NC(=O)c1ccc(N2CCN(Cc3cnc4c(N)c(CC)c(=O)[nH]c4c3)CC2)c(F)n1 [Example 4, 5-(4-((8-Amino-7-ethyl-6-oxo-5,6-dihydro-1,5-naphthyridin-3-yl)methyl)piperazin-1-yl)-6-fluoro-N-(methyl-d3)picolinamide]",tumour regression,[1]; FIG. 3,promoted tumour regression
same,ORR,[1]; treatment 28 days,60%
same,EC50,[2],0.0038 µM
same,inhibition on cell proliferation at the highest concentration,"[3]; BRCA1-normal MDA-MB-231 cell line, 10 µM",no detectable inhibition
same,IC50,"[3]; Homo sapiens, MDA-MB-231, 168 h, BRCA1-normal, 7 days, read-out: MDA-MB-231 IC50",> 10 µM
same,Bottom,"[4]; PARP2, 0.25 hour",4.3
same,EC50,"[4]; PARP2, 0.25 hour",2.33 µM
same,Hillslope,"[4]; PARP2, 0.25 hour",1.4
same,Top,"[4]; PARP2, 0.25 hour",= 100.0
same,Bottom,"[4]; PARP2, 0.5 hour",1.0
same,EC50,"[4]; PARP2, 0.5 hour",5.47 µM
same,Hillslope,"[4]; PARP2, 0.5 hour",1.9
same,Top,"[4]; PARP2, 0.5 hour",= 100.0
same,Bottom,"[4]; PARP2, 1 hour",0.8
same,EC50,"[4]; PARP2, 1 hour",> 10 µM
same,Hillslope,"[4]; PARP2, 1 hour",2.1
same,Top,"[4]; PARP2, 1 hour",= 100.0
same,EC50,"[4]; PARP2, 2 hour",> 10 µM
same,EC50,"[4]; PARP2, 4 hour",> 10 µM
same,EC50,"[4]; PARP2, 8 hour",> 10 µM
same,EC50,"[4]; PARP2, 24 hour",> 10 µM
same,EC50,"[4]; PARP2, 48 hour",> 10 µM
same,inhibition on the enzyme activity at the highest concentration,"[5]; A549 PARP1-KO cell lines, 40 µM",no detectable inhibition
same,IC50,"[5]; Homo sapiens, A549, PARylation at the cellular level",> 40 µM
same,cleaved caspase-3 in tumour tissues,[6],induced an increase in cleaved caspase-3
